Values after ≈ are worked out from the molar mass of the structure shown.
Assays:
CCRF-CEM cell line = experiment: growth inhibition of human leukemic cells; type: cell-based; conditions: read-out: IC50 (concentration giving 50% growth inhibition)
[1] = tested on: X-5563, a plasma cell myeloma; experiment: antitumor activity against transplanted X-5563 plasma cell myeloma in mice; type: in vivo; conditions: daily for 10 days with 3 day delay
From the text: Compounds according to formula II above are also active against transplanted tumors in mice. Table II which follows gives the results of testing α-methyl 2-deoxy-3-phosphocholyl-5-n-hexadecyl-D-ribofuranoside against X-5563, a plasma cell myeloma. In the table, column 1 gives the dosage levels, column 2 toxic deaths, column 3, the percent tumor growth inhibition and column 4, the dosage schedule or regimen. Ten mice were given each dosage ip and a group of 20 mice used as controls.

[2] = tested on: spontaneously hypertensive rats (SHR); experiment: blood pressure lowering in spontaneously hypertensive rats (tailcuff method); type: in vivo; conditions: 5 mg/kg subcutaneous, 3-5 hours
From the text: Certain of the compounds of this invention are also active in lowering the blood pressure of spontaneously hypertensive rats (SHR). For example, β-methyl 2-deoxy-3-phosphocholyl-5-n-hexadecyl-D-ribofuranoside, when administered subcutaneously to SHR at various dose levels, produced the hypotensive effects set forth in Table III below.
*measured by tailcuff method

Row | SMILES | IC50 (CCRF-CEM cell line) [µg/mL] | other results
1 | CCCCCCCCCCCCCCCCO[C@H]1CC(=O)O[C@@H]1COP(=O)([O-])OCC[N+](C)(C)C [drawing 20 (R, R^1 = Carbonyl), 2-deoxy-3-n-hexadecyl-5-phosphocholyl-D-ribofuran-1-one] | 6.2 (≈ 11.9 µM) | –
2 | CCCCCCCCCCCCCCCCOC[C@H]1O[C@H](OC)C[C@@H]1OP(=O)([O-])OCC[N+](C)(C)C [drawing 19 (R = MeO, R^1 = H), α-methyl 2-deoxy-3-phosphocholyl-5-n-hexadecyl-D-ribofuranoside] | 2.3 (≈ 4.28 µM) | Percent inhibition of Tumor growth ([1]; 25 mg/kg ip): 37%; Toxic deaths ([1]; 25 mg/kg ip): 0/10; Percent inhibition of Tumor growth ([1]; 50 mg/kg ip): 61%; Toxic deaths ([1]; 50 mg/kg ip): 2/10
3 | CCCCCCCCCCCCCCCCOC[C@H]1OC(O)C[C@@H]1OP(=O)([O-])OCC[N+](C)(C)C (stereo partly drawn) [drawing 19 (R = H(OH), R^1 = OH(H)), 2-deoxy-3-phosphocholyl-5-n-hexadecyl-D-ribose] | 6.4 (≈ 12.2 µM) | –
4 | CCCCCCCCCCCCCCCCO[C@H]1C[C@@H](OC)O[C@@H]1COP(=O)([O-])OCC[N+](C)(C)C [drawing 20 (R = MeO, R^1 = H), Methyl 2-deoxy-3-n-hexadecyl-5-phosphocholyl-D-ribofuranoside] | 5.2 (≈ 9.67 µM) | –
5 | CCCCCCCCCCCCCCCCOC[C@H]1O[C@H](OC)C[C@H]1OP(=O)([O-])OCC[N+](C)(C)C [drawing 21 (R = MeO, R^1 = H), α-Methyl 2-deoxy-3-phosphocholyl-5-n-hexadecyl-D-xylofuranoside] | 5.3 (≈ 9.86 µM) | –
6 | CCCCCCCCCCCCCCCCO[C@H]1CCO[C@@H]1COP(=O)([O-])OCC[N+](C)(C)C [drawing 20 (R = H, R^1 = H), 1,2-Dideoxy-3-n-hexadecyl-5-phosphocholyl-D-ribofuranose] | 3.4 (≈ 6.7 µM) | –
7 | CCCCCCCCCCCCCCCCO[C@H]1CC(O)O[C@@H]1COP(=O)([O-])OCC[N+](C)(C)C (stereo partly drawn) [drawing 20 (R = H(OH), R^1 = OH(H)), 2-Deoxy-3-n-hexadecyl-5-phosphocholyl-D-ribose] | 13.2 (≈ 25.2 µM) | –
8 | CCCCCCCCCCCCCCCCOC[C@H]1OCC[C@H]1OP(=O)([O-])OCC[N+](C)(C)C [drawing 21 (R = H, R^1 = H), 1,2-dideoxy-3-phosphocholyl-5-n-hexadecyl-D-xylofuranose] | 6.2 (≈ 12.2 µM) | –
9 | CCCCCCCCCCCCCCCCO[C@H]1C[C@H](OC)O[C@@H]1COP(=O)([O-])OCC[N+](C)(C)C [drawing 20 (R = H, R^1 = MeO), β-Methyl 2-deoxy-3-n-hexadecyl-5-phosphocholyl-D-ribofuranoside] | < 2.1 | –
10 | CCCCCCCCCCCCCCCCOC[C@H]1O[C@@H](OC)C[C@@H]1OP(=O)([O-])OCC[N+](C)(C)C [drawing 19 (R = H, R^1 = MeO), β-methyl 2-deoxy-3-phosphocholyl-5-n-hexadecyl-D-ribofuranoside] | 6.2 (≈ 11.5 µM) | Heart Rate [2]: No effect; Blood pressure effect ([2]; tailcuff method): -20 mmHg
11 | CCCCCCCCCCCCCCCCOC[C@H]1OCC[C@@H]1OP(=O)([O-])OCC[N+](C)(C)C [drawing 19 (R = H, R^1 = H), 1,2-dideoxy-3-phosphocholyl-5-n-hexadecyl-D-ribofuranose] | 3.7 (≈ 7.29 µM) | –
